Test system: PDC 899932-113-R3-J6 complex spheroid viability
Assay: Anticancer human tumor 899932-113-R3-J6-PDC patient-derived melanoma cell line growth inhibition [RAS]
Conditions: for viability, T/C: stronger effect = lower value
How it was run: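 Multi-cell-type spheroids: tumor cells plus HUVEC endothelial cells and mesenchymal stem cells. RAS-pathway inhibitors were combined with targeted agents, each dosed in half-log steps down from clinical Cmax, or from 10 microM when Cmax was unknown.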

[1] = curve of first compound, second compound 0.00316 µM
[2] = curve of first compound, second compound 0.01 µM
[3] = curve of first compound, second compound 0.0316 µM
[4] = curve of first compound, second compound 0.1 µM
[5] = curve of first compound, second compound 0.316 µM
[6] = curve of first compound, second compound 1 µM
[7] = second compound 0.00316 µM, first compound 0.0316 µM
[8] = second compound 0.00316 µM, first compound 0.1 µM
[9] = second compound 0.00316 µM, first compound 0.316 µM
[10] = second compound 0.00316 µM, first compound 1 µM
[11] = second compound 0.01 µM, first compound 0.0316 µM
[12] = second compound 0.01 µM, first compound 0.1 µM
[13] = second compound 0.01 µM, first compound 0.316 µM
[14] = second compound 0.01 µM, first compound 1 µM
[15] = second compound 0.0316 µM, first compound 0.00316 µM
[16] = second compound 0.0316 µM, first compound 0.01 µM
[17] = second compound 0.0316 µM, first compound 0.0316 µM
[18] = second compound 0.0316 µM, first compound 0.1 µM
[19] = second compound 0.0316 µM, first compound 0.316 µM
[20] = second compound 0.0316 µM, first compound 1 µM
[21] = second compound 0.1 µM, first compound 0.00316 µM
[22] = second compound 0.1 µM, first compound 0.01 µM
[23] = second compound 0.1 µM, first compound 0.0316 µM
[24] = second compound 0.1 µM, first compound 0.1 µM
[25] = second compound 0.1 µM, first compound 0.316 µM
[26] = second compound 0.1 µM, first compound 1 µM
[27] = second compound 0.316 µM, first compound 0.00316 µM
[28] = second compound 0.316 µM, first compound 0.01 µM
[29] = second compound 0.316 µM, first compound 0.0316 µM
[30] = second compound 0.316 µM, first compound 0.1 µM
[31] = second compound 0.316 µM, first compound 0.316 µM
[32] = second compound 0.316 µM, first compound 1 µM
[33] = second compound 1 µM, first compound 0.00316 µM
[34] = second compound 1 µM, first compound 0.01 µM
[35] = second compound 1 µM, first compound 0.0316 µM
[36] = second compound 1 µM, first compound 0.1 µM
[37] = second compound 1 µM, first compound 0.316 µM
[38] = second compound 1 µM, first compound 1 µM
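Wherever viability, T/C is given: spheroids exposed to agents for seven days before readout; 100% = DMSO vehicle control wells.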

SMILES: O=C(c1ccc(F)c(F)c1Nc1ccc(I)cc1F)N1CC(O)([C@@H]2CCCCN2)C1 + C=CC(=O)N1CCN(c2nc(OCC3CCCN3C)nc3c(F)c(-c4nc(N)cc(C)c4C(F)(F)F)c(Cl)cc23)C(C)C1
- IC50 [1]: 5.71 nM
- IC50 [2]: 6.26 nM
- IC50 [3]: 6.75 nM
- IC50 [4]: 8.47 nM
- IC50 [5]: 7.95 nM
- IC50 [6]: 8.43 nM
- viability, T/C (second compound 0.00316 µM, first compound 0.00316 µM): 71.1%
- viability, T/C (second compound 0.00316 µM, first compound 0.01 µM): 30%
- viability, T/C [7]: 6.25%
- viability, T/C [8]: 3.24%
- viability, T/C [9]: 1.5%
- viability, T/C [10]: 0.84%
- viability, T/C (second compound 0.01 µM, first compound 0.00316 µM): 74.8%
- viability, T/C (second compound 0.01 µM, first compound 0.01 µM): 33%
- viability, T/C [11]: 5.84%
- viability, T/C [12]: 2.5%
- viability, T/C [13]: 1.9%
- viability, T/C [14]: 0.68%
- viability, T/C [15]: 81.8%
- viability, T/C [16]: 33.5%
- viability, T/C [17]: 7.48%
- viability, T/C [18]: 2.48%
- viability, T/C [19]: 1.88%
- viability, T/C [20]: 0.72%
- viability, T/C [21]: 73.9%
- viability, T/C [22]: 46%
- viability, T/C [23]: 7.56%
- viability, T/C [24]: 2.66%
- viability, T/C [25]: 1.89%
- viability, T/C [26]: 1.02%
- viability, T/C [27]: 74.5%
- viability, T/C [28]: 43.9%
- viability, T/C [29]: 9.69%
- viability, T/C [30]: 2.51%
- viability, T/C [31]: 1.92%
- viability, T/C [32]: 0.96%
- viability, T/C [33]: 72.8%
- viability, T/C [34]: 46%
- viability, T/C [35]: 7.46%
- viability, T/C [36]: 3.39%
- viability, T/C [37]: 1.9%
- viability, T/C [38]: 1.15%

SMILES: C=CC(=O)Nc1cc(Nc2nccc(-c3cn(C)c4ccccc34)n2)c(OC)cc1N(C)CCN(C)C + C#Cc1c(F)ccc2cc(O)cc(-c3ncc4c(N5CC6CCC(C5)N6)nc(OCC56CCCN5CC(F)C6)nc4c3F)c12
- IC50 [3]: > 1000 nM
- IC50 [4]: > 1000 nM
- IC50 [5]: > 1000 nM
- IC50 [6]: > 1000 nM
- IC50 (curve of first compound, second compound 3.16 µM): > 1000 nM
- IC50 (curve of first compound, second compound 10 µM): > 1000 nM
- viability, T/C [15]: 117%
- viability, T/C [16]: 110%
- viability, T/C [17]: 109%
- viability, T/C [18]: 103%
- viability, T/C [19]: 110%
- viability, T/C [20]: 95.6%
- viability, T/C [21]: 103%
- viability, T/C [22]: 107%
- viability, T/C [23]: 106%
- viability, T/C [24]: 100%
- viability, T/C [25]: 113%
- viability, T/C [26]: 103%
- viability, T/C [27]: 111%
- viability, T/C [28]: 106%
- viability, T/C [29]: 106%
- viability, T/C [30]: 107%
- viability, T/C [31]: 111%
- viability, T/C [32]: 104%
- viability, T/C [33]: 114%
- viability, T/C [34]: 113%
- viability, T/C [35]: 119%
- viability, T/C [36]: 122%
- viability, T/C [37]: 105%
- viability, T/C [38]: 115%
- viability, T/C (second compound 3.16 µM, first compound 0.00316 µM): 115%
- viability, T/C (second compound 3.16 µM, first compound 0.01 µM): 116%
- viability, T/C (second compound 3.16 µM, first compound 0.0316 µM): 114%
- viability, T/C (second compound 3.16 µM, first compound 0.1 µM): 117%
- viability, T/C (second compound 3.16 µM, first compound 0.316 µM): 112%
- viability, T/C (second compound 3.16 µM, first compound 1 µM): 114%
- viability, T/C (second compound 10 µM, first compound 0.00316 µM): 123%
- viability, T/C (second compound 10 µM, first compound 0.01 µM): 118%
- viability, T/C (second compound 10 µM, first compound 0.0316 µM): 110%
- viability, T/C (second compound 10 µM, first compound 0.1 µM): 128%
- viability, T/C (second compound 10 µM, first compound 0.316 µM): 120%
- viability, T/C (second compound 10 µM, first compound 1 µM): 93.7%

SMILES: CC(C)NCC(C(=O)N1CCN(c2ncnc3c2C(C)CC3O)CC1)c1ccc(Cl)cc1 (stereo not drawn)
- viability, T/C (compound 0.0316 µM): 110% [middle of 4 runs]
- viability, T/C (compound 0.1 µM): 99.1% [middle of 4 runs]
- viability, T/C (compound 0.316 µM): 97.7% [middle of 4 runs]
- viability, T/C (compound 1 µM): 84.7% [middle of 4 runs]
- viability, T/C (compound 3.16 µM): 62.5% [middle of 4 runs]
- viability, T/C (compound 10 µM): 39.9% [middle of 4 runs]
- IC50 (curve of compound): 5.72 µM [middle of 4 runs]

SMILES: CC(=O)OC12COC1CC(O)C1(C)C(=O)C(O)C3=C(C)C(OC(=O)C(O)C(NC(=O)OC(C)(C)C)c4ccccc4)CC(O)(C(OC(=O)c4ccccc4)C21)C3(C)C (stereo not drawn) + C=CC(=O)N1CCN(c2nc(OCC3CCCN3C)nc3c(F)c(-c4nc(N)cc(C)c4C(F)(F)F)c(Cl)cc23)C(C)C1
- IC50 [1]: < 31.6 nM
- IC50 [2]: < 31.6 nM
- IC50 [3]: < 31.6 nM
- IC50 [4]: < 31.6 nM
- IC50 [5]: < 31.6 nM
- IC50 [6]: < 31.6 nM
- viability, T/C [7]: 30.5%
- viability, T/C [8]: 30.6%
- viability, T/C [9]: 40%
- viability, T/C [10]: 46.4%
- viability, T/C (second compound 0.00316 µM, first compound 3.16 µM): 69.7%
- viability, T/C (second compound 0.00316 µM, first compound 10 µM): 82.1%
- viability, T/C [11]: 31.2%
- viability, T/C [12]: 36.1%
- viability, T/C [13]: 39.6%
- viability, T/C [14]: 57.3%
- viability, T/C (second compound 0.01 µM, first compound 3.16 µM): 49.5%
- viability, T/C (second compound 0.01 µM, first compound 10 µM): 76.6%
- viability, T/C [17]: 31%
- viability, T/C [18]: 43.6%
- viability, T/C [19]: 42.2%
- viability, T/C [20]: 48.4%
- viability, T/C (second compound 0.0316 µM, first compound 3.16 µM): 68.3%
- viability, T/C (second compound 0.0316 µM, first compound 10 µM): 60.8%
- viability, T/C [23]: 34.5%
- viability, T/C [24]: 37.2%
- viability, T/C [25]: 34.2%
- viability, T/C [26]: 50.4%
- viability, T/C (second compound 0.1 µM, first compound 3.16 µM): 73.6%
- viability, T/C (second compound 0.1 µM, first compound 10 µM): 74%
- viability, T/C [29]: 27.6%
- viability, T/C [30]: 34.3%
- viability, T/C [31]: 44.8%
- viability, T/C [32]: 47.1%
- viability, T/C (second compound 0.316 µM, first compound 3.16 µM): 75.1%
- viability, T/C (second compound 0.316 µM, first compound 10 µM): 79%
- viability, T/C [35]: 31.5%
- viability, T/C [36]: 37.1%
- viability, T/C [37]: 38.8%
- viability, T/C [38]: 51%
- viability, T/C (second compound 1 µM, first compound 3.16 µM): 68.5%
- viability, T/C (second compound 1 µM, first compound 10 µM): 69.2%

Source: PubChem BioAssay AID2060895 (Molecular Pharmacology Branch, DTP, NCI, 2025)
